The text below walks through data of patent US20210154280A1, “NEO-EPITOPE VACCINES AND METHODS OF TREATING CANCER” (Epivax Oncology, Inc., priority 2019, published 2021).

One assay has as its system CT26 tumor cells. The assay is described as follows: CT26 tumor growth and survival after vaccination (Example 1). The note with it: N=10 per group.
Assay [1] relates to CT26 murine colon tumor cells. The assay is described as follows: Anti-tumor activity with or without poly-ICLC, CT26 murine tumor model (Example 13). It is filed as in vivo, BALB/c mice. The note with it: day 25 post-tumor implantation; relative to PBS or poly-ICLC alone; sc twice per week for three weeks. Here is the method: The goal of this experiment was to determine the requirement for the inclusion of the adjuvant poly-ICLC in a peptide vaccine containing ANCER™ selected neoantigens. For this experiment, female BALB/c mice were implanted subcutaneously with 3×10^5 CT26 murine colon tumor cells. Tumor growth was monitored by caliper measurement and mice were sacrificed 45 days after tumor implantation or when tumor volumes reached 2000 mm^3, whichever came first.
Four vaccine groups were tested (n=10 mice/group): • Group 1=PBS only • Group 2=PBS with 50 μg poly-ICLC • Group 3=20 ANCER™ selected (uncapped) peptides with 50 μg poly-ICLC • Group 4=20 ANCER™ selected (uncapped) peptides only
Peptide vaccines were comprised of 20 different ANCER™ selected peptides at a concentration of 5 μg/peptide for a total dose of 100 μg peptide per immunization. Mice were immunized subcutaneously in the opposite flank from tumor implantation twice per week for three weeks, starting at day 4 post-tumor implantation.

Description for CT26 tumor cells: Mice were separated into three groups: 1) PBS control; 2) poly-ICLC (vehicle); 3) ANCER™-selected CT26 Neoantigen Peptides+poly-ICLC. • Group 1: PBS, sc injections at days 5, 8, 12, 15, 19, 22, and 26. • Group 2: poly-ICLC, 50 μg, sc injections at days 5, 8, 12, 15, 19, 22, and 26. • Group 3: 5 μg/ANCER™-selected CT26 Neoantigen Peptide (100 μg total ANCER™-selected CT26 Neoantigen Peptides)+50 μg poly-ICLC, sc injections at days 5, 8, 12, 15, 19, 22, and 26.
All mice (N=10 mice per group) were injected 3*10^5 CT26 tumor cells in 0% Matrigel at day 0. Mice were sacrificed once the tumor volume reached 2,000 mm^3 or at day 45, whichever came first.

Turning to poly-ICLC, in the assay with CT26 tumor cells, the “mice that survived the 45 days of the experiment (in words)” value was “None”. In the assay on CT26 tumor cells (by day 28), the “mice reaching a tumor volume of at least 2,000 mm^3 (endpoint)” value stood at 60%. Besides, the “control of tumor growth” value in assay [1] is given as “no difference in tumor growth kinetics”.
